The conditions of data set [1]: cited from earlier work.
Data set [2] concerns individuals with mild to moderate Alzheimer's disease. Conditions: cited from earlier work.
For another data set, the system named is AAMU-Ab. In words: Competitive antigen ELISA, cross-reactivity of AAMU-Ab. The format is binding, rabbit. Conditions: 0 = absence of inhibition or inhibition no higher than 40% at 5×10^−3 M. Background: An ELISA detects its analyte on a solid surface through an enzyme-linked reagent.

The text below walks through data of patent US20030138375A1, “Individualization of therapy with Alzheimer's disease agents” (priority 2001, published 2003).

Where a name gives a salt, the structure may show the parent alone. Marks after values point to notes of the source that are not given here.

Protocol for AAMU-Ab: Buffers and water without additives are filtered through millipore filters and kept for 1 week. BSA, antibodies, Tween™ 20 and horse radish peroxidase conjugates are added to these buffers and water just prior to use. Urine samples are usually collected 4 hours after drinking a cup of coffee (instant or brewed with approximately 100 mg of caffeine per cup) and stored at −80° C. The urine samples are diluted 10 times with sodium phosphate buffer (620 mosm, pH 7.50) and are subsequently diluted with water to give concentrations of AAMU and 1X no higher than 3×10^−6 M in the ELISA. All the pipettings are done with an eight-channel pipette, except those of the antibody and sample solutions. Starting with the last well, 100 μL of a carbonate buffer (100 mM, pH 9.6) containing 2.5 μg mL^−1 antibodies are added to each well. After 90 min. at room temperature, the wells are washed three times with 100 mL of TPB: isotonic sodium phosphate buffer (310 mosm, pH 7.50) containing 0.05% Tween™ 20.
After the initial wash, unoccupied sites are blocked by incubation for 90 min. at room temperature with 100 μL TBP containing 3% BSA. The wells are washed four times with 100 μL TPB. […] The microplate is gently shaken with an orbital shaker at room temperature for 3-4 hours. The wells are washed three times with 100 μL TPB containing 1% BSA and three times with water containing 0.05% Tween™ 20. […]

Turning to `COc1cc2c(cc1O)C(=O)C(CC1CCN(Cc3ccccc3)CC1)C2` (stereo not drawn) [6-O-desmethyl donepezil], in data set [1] (14C-labeled donepezil), the “plasma radioactivity, expressed as a percent of the administered dose” value is reported as 11%. Further, the “plasma concentration relative to donepezil” value in data set [1] (in vivo) was “about 20%”.

For `Nc1c2c(nc3ccccc13)CCCC2` [Tacrine], the “improvement in cognitive function on the ADAS-Cog” value in data set [2] (40 mg four times daily, over 12 weeks) is reported as “about 2 points”. Also, the “persons who had to discontinue the drug due to side effects” value in data set [2] (human, in vivo) is reported as “up to half”.

Consider `O=c1[nH]c(=O)c2[nH]cnc2[nH]1` [Xanthine], for which the “% Cross-Reaction AAMU-Ab” value in the data set with AAMU-Ab is 0^a %. Consider `COc1cc2c(cc1OC)C(=O)C(CC1CCN(Cc3ccccc3)CC1)C2` (racemic) [Donepezil, (±)-2,3-dihydro-5,6-dimethoxy-2-[[1-(phenylmethyl)-4-piperidinyl]methyl] -1H-inden-1-onehydrochloride], for which the “effect size on the ADAS-Cog vs placebo” value in data set [2] (5 mg or 10 mg per day, over 24 weeks) is given as “about 3 points”.
